PubChem BioAssay AID1259408 (Genetic Toxicology Data Bank (GENE-TOX), 2018)
Active and inactive are the calls of the source. How the calls were made is not given here.

Test system: GENE-TOX genotoxicity assays, various organisms and cells
Assay: GENE-TOX mutagenicity studies
Details: for call: Assay Type: In vivo carcinogenicity studies
[1] = Species/Cell Type: Bacillus subtilis (H17 vs M45), Assay Type: Rec-assay, spot test, DNA effects (bacterial DNA repair), Assay Code: REW-, Evaluation Type: Evaluation A (Pre-1980)
[2] = Species/Cell Type: Salmonella typhimurium (one or more of the five standard strains: TA98, TA100, TA1535, TA1537, and TA1538), Assay Type: Histidine reverse gene mutation, Ames assay, Assay Code: SAL+*, Activation: With metabolic activation, Evaluation Type: Evaluation A (Pre-1980)
[3] = Species/Cell Type: Mammalian polychromatic erythrocytes, Assay Type: Micronucleus test, chromosome aberrations, Assay Code: MNTT, Evaluation Type: Evaluation A (Pre-1980)
[4] = Species/Cell Type: Mouse, Sex: Male, Assay Type: Sperm morphology, Assay Code: SPI-, Evaluation Type: Evaluation A (Pre-1980)
[5] = Species/Cell Type: Nonhuman, Assay Code: CCG+, Evaluation Type: Evaluation A (Pre-1980)
[6] = Species/Cell Type: Drosophila melanogaster, Assay Type: Sex-linked recessive lethal gene mutation, Assay Code: SRL+, Evaluation Type: Evaluation A (Pre-1980)
[7] = Species/Cell Type: Nonhuman, Assay Type: Sister-chromatid exchange (SCE) in vitro, Assay Code: SC2T, Evaluation Type: Evaluation B (Post-1980)
[8] = Species/Cell Type: Mammalian polychromatic erythrocytes, Assay Type: Micronucleus test, chromosome aberrations, Assay Code: MNT+, Evaluation Type: Evaluation B (Post-1980)
[9] = Species/Cell Type: Salmonella typhimurium (one or more of the five standard strains: TA98, TA100, TA1535, TA1537, and TA1538), Assay Type: Histidine reverse gene mutation, Ames assay, Assay Code: SAL+, Evaluation Type: Evaluation A (Pre-1980)
[10] = Species/Cell Type: Human lymphocytes, Assay Type: Sister-chromatid exchange (SCE) in vitro, Assay Code: SCL+D, Dose Response: With dose response, Evaluation Type: Evaluation B (Post-1980)
[11] = Species/Cell Type: Human, Assay Type: Sister-chromatid exchange (SCE) in vitro, Assay Code: SC1+D, Dose Response: With dose response, Evaluation Type: Evaluation B (Post-1980)
[12] = Species/Cell Type: Drosophila melanogaster, Assay Type: Sex-linked recessive lethal gene mutation, Assay Code: SRLT, Evaluation Type: Evaluation A (Pre-1980)
[13] = Species/Cell Type: Saccharomyces cerevisiae, Assay Type: Reverse gene mutation, Assay Code: YER+, Evaluation Type: Evaluation A (Pre-1980)
[14] = Species/Cell Type: Saccharomyces cerevisiae, Assay Type: Mitotic recombination or gene conversion, Assay Code: YEC+, Evaluation Type: Evaluation A (Pre-1980)

`O=C1OC2(c3cc(Br)c(O)c(Br)c3Oc3c2cc(Br)c(O)c3Br)c2c(Cl)ccc(Cl)c21` was tested, and the mutagenic call [1] was “inactive; negative” and the mutagenic call (Species/Cell Type: Bacillus subtilis (H17 vs M45T), Assay Type: Rec-assay, spot test, DNA effects (bacterial DNA repair), Assay Code: REX+, Evaluation Type: Evaluation A (Pre-1980)) was “active; positive”.

For `CCOC(=O)CSc1ccc2c3c(cccc13)C(=O)c1ccccc1-2`, the mutagenic call [2] was “active; positive”.

`c1ccc2c(c1)cnc1ccccc12` was tested, and the mutagenic call [2] was “active; positive”.

In the case of `CCCCN(CCCC)N=O`, the mutagenic call (Species/Cell Type: Chinese hamster lung (V79) cells, Assay Type: Forward gene mutation at the HPRT or ouabain locus, Assay Code: V79+, Evaluation Type: Evaluation A (Pre-1980)) is reported as “active; positive”, the mutagenic call (Species/Cell Type: Chinese hamster ovary (CHO) cells, Assay Type: Forward gene mutation at the HPRT locus, Assay Code: CHO+*, Activation: With metabolic activation, Evaluation Type: Evaluation B (Post-1980)) is reported as “active; positive” and the mutagenic call (Species/Cell Type: Human diploid fibroblasts, Assay Type: Unscheduled DNA synthesis (UDS) in vitro, DNA effects, Assay Code: UDHT, Evaluation Type: Evaluation A (Pre-1980)) is reported as “no conclusion”. The mutagenic call [3] was “no conclusion”, the mutagenic call [4] was “inactive; negative” and the mutagenic call (Species/Cell Type: Nonhuman, Assay Type: Chromosome aberrations in vitro, Assay Code: CY&-, Evaluation Type: Evaluation A (Pre-1980)) was “inactive; negative”. For the same compound, the call [5] was “active; positive”, the mutagenic call (Species/Cell Type: Nonhuman, Assay Type: Sister-chromatid exchange (SCE) in vitro, Assay Code: SC2+D, Dose Response: With dose response, Evaluation Type: Evaluation B (Post-1980)) was “active; positive” and the mutagenic call (Species/Cell Type: Nonhuman, Assay Type: Sister-chromatid exchange (SCE) in vitro, Assay Code: SC2T, Evaluation Type: Evaluation A (Pre-1980)) was “no conclusion”. For the same compound, the mutagenic call (Species/Cell Type: Nonhuman, Assay Type: Sister-chromatid exchange (SCE) in vivo, Assay Code: SC3+, Evaluation Type: Evaluation B (Post-1980)) was “active; positive” and the mutagenic call [2] was “active; positive”.

With `O=CNc1nc(-c2cc([N+](=O)[O-])c[nH]2)cs1` the mutagenic call (Species/Cell Type: Salmonella typhimurium (one or more of the five standard strains: TA98, TA100, TA1535, TA1537, and TA1538), Assay Type: Histidine reverse gene mutation, Ames assay, Assay Code: SALT, Evaluation Type: Evaluation A (Pre-1980)) was “no conclusion”.

`O=C1C=C(N2CC2)C(=O)C=C1N1CC1` was tested, and the mutagenic call [6] was “active; positive”.

With `COP(N)(=O)SC` (stereo unspecified) the mutagenic call [7] was “no conclusion”.

In the case of `CSc1nc2c(c(=O)n(C)c(=O)n2C)n1C`, the mutagenic call (Species/Cell Type: Allium cepa, Assay Type: Chromosome aberrations, Assay Code: ALC+D, Dose Response: With dose response, Evaluation Type: Evaluation A (Pre-1980)) is reported as “active; positive”.

In the case of `c1ccc2c(c1)cc1ccc3cc4ccccc4c4ccc2c1c34`, the call [5] is reported as “active; positive” and the mutagenic call [2] is reported as “active; positive”.

For `[O-][Br+2]([O-])O`, the mutagenic call [8] was “active; positive”.

For `C[CH2][Hg][S]c1ccc(OS(=O)O)cc1`, the mutagenic call (Species/Cell Type: Saccharomyces cerevisiae, Assay Type: Aneuploidy, chromosome aberrations, Assay Code: YEN+, Evaluation Type: Evaluation A (Pre-1980)) was “active; positive”.

`ClCCNCCNc1c2ccccc2nc2c1ccc1ccccc12` was tested, and the mutagenic call [9] was “active; positive”.

In the case of `Cn1cccc1CO`, the mutagenic call [10] is reported as “active; positive” and the mutagenic call [11] is reported as “active; positive”.

`CC1CCCC(C)N1N=O` (stereo unspecified) was tested, and the mutagenic call (Species/Cell Type: Drosophila melanogaster, Assay Type: Aneuploidy, partial sex chromosome loss, chromosome aberrations, Assay Code: DAPT, Evaluation Type: Evaluation A (Pre-1980)) was “no conclusion”, the mutagenic call (Species/Cell Type: Drosophila melanogaster, Assay Type: Aneuploidy, whole sex chromosome loss, chromosome aberrations, Assay Code: DACT, Evaluation Type: Evaluation A (Pre-1980)) was “no conclusion” and the mutagenic call [12] was “no conclusion”. For the same compound, the call (Species/Cell Type: Nonhuman, Assay Code: CCGT, Evaluation Type: Evaluation A (Pre-1980)) was “no conclusion”, the mutagenic call (Species/Cell Type: Saccharomyces cerevisiae, Assay Type: Forward gene mutation, Assay Code: YEF-*, Activation: With metabolic activation, Evaluation Type: Evaluation A (Pre-1980)) was “inactive; negative” and the mutagenic call (Species/Cell Type: Saccharomyces cerevisiae, Assay Type: Reverse gene mutation, Assay Code: YER+*, Activation: With metabolic activation, Evaluation Type: Evaluation A (Pre-1980)) was “active; positive”.

In the case of `CCN(CCCC(=O)O)N=O`, the mutagenic call [9] is reported as “active; positive”.

`[Cl][Zn][Cl]` was tested, and the mutagenic call [1] was “inactive; negative”, the mutagenic call (Species/Cell Type: Human lymphocytes or leukocytes, Assay Type: Chromosome aberrations in vitro, Assay Code: CY7-, Evaluation Type: Evaluation A (Pre-1980)) was “inactive; negative” and the mutagenic call [4] was “inactive; negative”. For the same compound, the mutagenic call [9] was “active; positive”, the mutagenic call (Species/Cell Type: Salmonella typhimurium, Assay Type: Forward and reverse gene mutation, host-mediated assay, Assay Code: HMA+, Evaluation Type: Evaluation A (Pre-1980)) was “active; positive” and the mutagenic call (Species/Cell Type: Syrian hamster embryo (SA7/SHE) cells, Assay Type: Cell transformation, viral enhanced, Assay Code: CT7+, Evaluation Type: Evaluation A (Pre-1980)) was “active; positive”.

In the case of `O=C(O)CN(CC(=O)O)CC(=O)O`, the mutagenic call (Species/Cell Type: Drosophila melanogaster, Assay Type: Sex-linked recessive lethal gene mutation, Assay Code: SRL-, Evaluation Type: Evaluation A (Pre-1980)) is reported as “inactive; negative”, the mutagenic call (Species/Cell Type: Mouse, Sex: Male, Assay Type: Heritable translocation test, chromosome aberrations, Assay Code: HTT-, Evaluation Type: Evaluation A (Pre-1980)) is reported as “inactive; negative” and the call [5] is reported as “active; positive”. For the same compound, the mutagenic call [7] was “no conclusion”, the mutagenic call (Species/Cell Type: Salmonella typhimurium (one or more of the five standard strains: TA98, TA100, TA1535, TA1537, and TA1538), Assay Type: Histidine reverse gene mutation, Ames assay, Assay Code: SALT, Evaluation Type: Evaluation B (Post-1980)) was “no conclusion” and the mutagenic call (Species/Cell Type: Vicia faba, Assay Type: Chromosome aberrations, Assay Code: VIC+, Evaluation Type: Evaluation A (Pre-1980)) was “active; positive”.

For `CC(S)C(=O)NCC(=O)O` (stereo unspecified), the mutagenic call (Species/Cell Type: Mammalian polychromatic erythrocytes, Assay Type: Micronucleus test, chromosome aberrations, Assay Code: MNTT, Evaluation Type: Evaluation B (Post-1980)) was “no conclusion”.

With `CCCCCCCCCCCC(=O)N(C)N=O` the mutagenic call [13] was “active; positive”.

With `Nc1ccc2nc3ccc(N)cc3[n+](-c3ccccc3)c2c1` the mutagenic call [12] was “no conclusion”.

With `Nc1cccc(O)c1` the mutagenic call [3] was “no conclusion” and the mutagenic call (Species/Cell Type: Neurospora crassa, Assay Type: Aneuploidy, chromosome aberrations, Assay Code: NEN-, Evaluation Type: Evaluation A (Pre-1980)) was “inactive; negative”.

`CCN(CC)c1ccc2nc3ccc(N=Nc4ccc(N(C)C)cc4)cc3[n+](-c3ccccc3)c2c1` was tested, and the mutagenic call (Species/Cell Type: Bacillus subtilis (H17 vs M45T), Assay Type: Rec-assay, spot test, DNA effects (bacterial DNA repair), Assay Code: REXT, Evaluation Type: Evaluation A (Pre-1980)) was “no conclusion”.

In the case of `CS(=O)(=O)OCC(O)C(O)COS(C)(=O)=O` (stereo unspecified), the mutagenic call (Species/Cell Type: Allium cepa, Assay Type: Chromosome aberrations, Assay Code: ALCT, Evaluation Type: Evaluation A (Pre-1980)) is reported as “no conclusion”, the mutagenic call (Species/Cell Type: Arabidopsis species, Assay Type: Gene mutation, Assay Code: ARM+, Evaluation Type: Evaluation A (Pre-1980)) is reported as “active; positive” and the mutagenic call (Species/Cell Type: Vicia faba, Assay Type: Chromosome aberrations, Assay Code: VIC+D, Dose Response: With dose response, Evaluation Type: Evaluation A (Pre-1980)) is reported as “active; positive”.

`[Zn]` was tested, and the mutagenic call (Species/Cell Type: Human lymphocytes or leukocytes, Assay Type: Chromosome aberrations in vivo, Assay Code: CY8T, Evaluation Type: Evaluation A (Pre-1980)) was “no conclusion”.

In the case of `Nc1cccc2c(N)cccc12`, the call [5] is reported as “active; positive”.

For `O=C(O)CCCc1ccc(N(CCCl)CCCl)cc1`, the mutagenic call (Species/Cell Type: Chinese hamster ovary (CHO) cells, Assay Type: Forward gene mutation at the HPRT locus, Assay Code: CHO+, Evaluation Type: Evaluation B (Post-1980)) was “active; positive”, the mutagenic call [6] was “active; positive” and the mutagenic call (Species/Cell Type: Human lymphocytes, Assay Type: Sister-chromatid exchange (SCE) in vitro, Assay Code: SCL+D, Dose Response: With dose response, Evaluation Type: Evaluation A (Pre-1980)) was “active; positive”. For the same compound, the mutagenic call [10] was “active; positive”, the mutagenic call (Species/Cell Type: Human lymphocytes, Assay Type: Sister-chromatid exchange (SCE) in vivo, Assay Code: SCY+, Evaluation Type: Evaluation B (Post-1980)) was “active; positive” and the mutagenic call (Species/Cell Type: Human, Assay Type: Sister-chromatid exchange (SCE) in vitro, Assay Code: SC1+D, Dose Response: With dose response, Evaluation Type: Evaluation A (Pre-1980)) was “active; positive”. For the same compound, the mutagenic call [11] was “active; positive”, the mutagenic call (Species/Cell Type: Human, Sex: Male, Assay Type: Sperm morphology, Assay Code: SPH+, Evaluation Type: Evaluation A (Pre-1980)) was “active; positive” and the mutagenic call [8] was “active; positive”. For the same compound, the call [5] was “active; positive”, the mutagenic call (Species/Cell Type: Nonhuman, Assay Type: Sister-chromatid exchange (SCE) in vitro, Assay Code: SC2+, Evaluation Type: Evaluation B (Post-1980)) was “active; positive” and the mutagenic call [14] was “active; positive”. For the same compound, the mutagenic call [13] was “active; positive”.

With `CN(N=O)C(=O)Nc1nc2ccccc2s1` the mutagenic call (Species/Cell Type: Neurospora crassa, Assay Type: Forward gene mutation, Assay Code: NEF+, Evaluation Type: Evaluation A (Pre-1980)) was “active; positive” and the mutagenic call [14] was “active; positive”.
